Data as given in patent US5972958A, “4-aminoalkoxy-1,3-dihydro-benzoimidazol-2-thiones” (American Home Products Corporation, priority 1998, dated 1999).

Experiments:
dopamine D2 receptor [1] = biological target: T1, dopamine D2 receptor (Rattus norvegicus, UniProt P61169); experiment: Affinity for the dopamine autoreceptor, 3H-quinpirole (D2 Quin.) binding in homogenized rat striatal brain tissue; set-up: homogenized rat striatal brain tissue; from tissue; host or cells: rat striatal brain tissue (homogenate); settings: high-affinity agonist state
T1 sequence (P61169 whole entry): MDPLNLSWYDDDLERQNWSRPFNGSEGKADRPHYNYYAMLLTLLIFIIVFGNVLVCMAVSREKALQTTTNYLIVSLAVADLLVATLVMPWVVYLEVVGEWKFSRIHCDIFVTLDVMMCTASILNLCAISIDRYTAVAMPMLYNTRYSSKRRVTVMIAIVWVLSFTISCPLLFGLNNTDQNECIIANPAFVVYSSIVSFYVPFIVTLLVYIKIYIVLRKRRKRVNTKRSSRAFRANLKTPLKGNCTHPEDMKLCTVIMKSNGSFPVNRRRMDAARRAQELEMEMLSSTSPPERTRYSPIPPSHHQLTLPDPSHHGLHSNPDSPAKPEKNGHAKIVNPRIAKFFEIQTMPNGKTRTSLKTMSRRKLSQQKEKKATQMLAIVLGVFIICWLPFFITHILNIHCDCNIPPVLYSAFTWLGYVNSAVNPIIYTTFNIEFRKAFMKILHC
Protocol: Affinity for the dopamine autoreceptor was established by a modification of the standard experimental test procedure of Seemen and Schaus, European Journal of Pharmacology 203: 105-109, 1991, wherein homogenized rat striatal brain tissue is incubated with ^3 H-quinpirole (Quin.) and various concentrations of test compound, filtered and washed and counted in a Betaplate scintillation counter.

dopamine D2 receptor [2] = biological target: T1, dopamine D2 receptor; experiment: Affinity for the dopamine D-2 receptor, 3H-spiroperidol (D2 Spiper) binding in homogenized limbic brain tissue; set-up: homogenized limbic brain tissue; from tissue; host or cells: limbic brain tissue (homogenate); settings: low-affinity agonist state
Protocol: High affinity for the dopamine D-2 receptor was established by the standard experimental test procedure of Fields, et al., Brain Res., 136, 578 (1977) and Yamamura et al., eds., Neurotransmitter Receptor Binding, Raven Press, N.Y. (1978) wherein homogenized limbic brain tissue is incubated with ^3 H-spiroperidol (Spiper.) and various concentrations of test compound, filtered and washed and shaken with Hydrofluor scintillation cocktail (National Diagnostics) and counted in a Packard 460 CD scintillation counter.

Row | SMILES | IC50 (dopamine D2 receptor [1]) [nM] | IC50 (dopamine D2 receptor [2]) [nM]
1 | S=c1[nH]c2cccc(OCCCNCc3ccccc3)c2[nH]1 [Example 3] | 14.9 | 1190
2 | S=c1[nH]c2cccc(OCCNCc3cccc4ccccc34)c2[nH]1 [Example 4, 4-{2-[(Naphthalen-1-ylmethyl)-amino]-ethoxy}-1,3-dihydro-benzoimidazole-2-thione] | 0.43 | 36.9
3 | S=c1[nH]c2cccc(OCCNCc3ccc(Cl)cc3)c2[nH]1 [Example 6, 4-[2-(4-Chloro-benzylamino)-ethoxy]-1,3-dihydro-benzoimidazole-2-thione] | 0.21 | 88
4 | CC(C)(C)c1ccc(CNCCOc2cccc3[nH]c(=S)[nH]c23)cc1 [Example 5, 4-[2-(4-tert-Butyl-benzylamino)-ethoxy]-1,3-dihydro-benzoimidazole-2-thione] | 0.82 | 6.87
5 | Cc1ccc(CNCCOc2cccc3[nH]c(=S)[nH]c23)cc1 [Example 2, 4-[2-(4-Methyl-benzylamino)-ethoxy]-1,3-dihydro-benzoimidazole-2-thione] | 0.42 | 37.7
6 | S=c1[nH]c2cccc(OCCNCc3ccccc3)c2[nH]1 [Example 1, 4-(2-Benzylamino-ethoxy)-1,3-dihydro-benzoimidazol-2-thione] | 0.36 | 33.4
7 | Sc1nc2c(OCCNCc3ccccc3)cc(Cl)cc2[nH]1 [Example 7, 4-(2-Benzylamino-ethoxy)-6-chloro-1,3-dihydro-benzoimidazole-2-thione] | 0.39 | 57

Continued, values first:

Row | IC50 (dopamine D2 receptor [1]) [nM] | IC50 (dopamine D2 receptor [2]) [nM] | SMILES
8 | 0.18 | 85 | S=c1[nH]c2cc(Cl)cc(OCCNCc3ccsc3)c2[nH]1 [Example 9, 6-Chloro-4-{2-[(thiophen-3-ylmethyl)-amino]-ethoxy}-1,3-dihydro-benzoimidazole-2-thione]
9 | 2.67 | 234 | S=c1[nH]c2cccc(OCCN3CCc4ccccc4C3)c2[nH]1 [Example 10, 4-[2-(3,4-Dihydro-1H-isoquinolin-2-yl)-ethoxy]-1,3-dihydro-benzoimidazole-2-thione]
10 | 0.37 | 88 | S=c1[nH]c2cc(Cl)cc(OCCNCc3cccs3)c2[nH]1 [Example 8, 6-Chloro-4-{2-[(thiophen-2-ylmethyl)-amino]-ethoxy}-1,3-dihydro-benzoimidazole-2-thione]
